Laboratory results as given in patent US6127342A, “Method for preventing or treating a lung disease caused by active oxygen and free radical injury” (Teijin Limited, priority 1991, dated 2000).

What was measured:
Assay type in all cases: in vivo
[1] = tested on: liver ischemia-reperfusion model using rats; assay: Adenine nucleotides concentration in liver tissue during liver ischemia-reperfusion; settings: rat, 50 mg/kg i.v.
Description: (§1) Male Wister rats weighing 250-300 g were fasted with free access to water 24 hours before the experiment. Seventy-two rats were divided into three groups of 24 animals each, i.e., the control group, the GSH administration group and the γ-GCE-administration group. Each rat was anesthetized by intraperitoneal administration of 40 mg/0.8 ml/kg of sodium pentobarbital, and the femoral vein was cannulated. In the GSH group and the γ-GCE group, 50 mg/kg of GSH or γ-GCE respectively were administered intravenously. Physiological saline was then infused for volume replacement in each group, as a continuous intravenous infusion at a rate of 0.8 ml/hr with an injection pump throughout the experiment. Thirty minutes after starting injection of physiological saline, the abdomon was opened by a midline incision and the liver hilus was exposed. According to the method described by Hasselgren, et al. in J. Surg. Res., Vol. 34, pp. 409-414, 1984, all vessels to the left and median lobes of the liver, more specifically, hepatic artery, portal vein and the bile duct, were clamped to produce an ischemic state for 2 hours. Since blood vessels to the remaining parts of the liver were not occluded by this method, poral stasis could be avoided which was of special relevance for circulation stability in rats. Thereafter, occlusion of all vessels was released by removing the clamp to allow reperfusion for 1 hour. The abdominal walls were closed during ischemia and reperfusion.
(§2) Using 18 rats in each group, the livers of 6 animals from each group were removed before ischemia, after 2 hours of ischemia, and after 1 hour of reperfusion, respectively. A portion of the liver from each animal was rapidly frozen in liquid nitrogen and used for measurement of glutathione,adenine nucleotides and lipid peroxide. From the remaining portion of the liver, mitochondria was immediately extracted according to the method described by Hogeboom and Schneider in the J. Biol. Chem., Vol. 172, p. 619, 1948. In other experiments, immediately after starting reperfusion, blood from the hepatic vein was collected using 6 rats from each group. These blood samples were then used to measure leaked adenine nucleotides. In addition, after 1 hour of said reperfusion, blood samples were also drawn, which were then used to measure the activity of the leaked liver cell enzymes.
(§3) Evaluation of ischemia-reperfusion injury was performed by measuring liver tissue (1) mitochondrial function, (2) glutathione concentration, (3) adenine nucleotides concentration, and (4) lipid peroxide concentration, as well as liver tissue derived (5) adenine nucleotides concentration in the hepatic vein immediately after starting reperfusion, and (6) liver cell enzyme activities in the blood after 1 hour of reperfusion. More specifically, the mitochondrial function in (1) was measured according to the method described by Chance, et al. in Adv. Enzymol., Vol. 17, p. 65, 1956. In addition, the quantitative determination of glutathione in (2) was performed using the same method as Experiment 1 on supernatant obtained by adding 10 vol/g of tissue weight of 2.5% (w/v) sulfosalicylic acid dihydrate aqueous solution to the liver tissue followed by homogenization and centrifugation. In addition, the quantitative determination of adenine nucleotides in (3) was performed by neutralizing the perchloric acid extract of the liver tissue with potassium hydroxide followed by removal of the precipitate and applying to an ion exchange HPLC column according to the method described by Sugino, et al. in J. Chromatogr., Vol. 361, pp. 427-431, 1986. In addition, the measurement of lipid peroxide in (4) was performed according to the thiobarbiturate method described by Ohkawa, et al. in Anal. Biochem., Vol. 95, p. 351, 1979. […]

[2] = tested on: liver tissue mitochondria; assay: Liver tissue mitochondrial function in liver ischemia-reperfusion; settings: rat, 50 mg/kg i.v. before ischemia, FIGS. 2A and 2B
Description: as §1, with “reperfusion. […]” for “reperfusion.”
as §3, with “Enzymol., Vol. 17, p. 65, 1956.” left out, “1986.” for “1986. In addition, the measurement of lipid peroxide in (4) was performed according to the thiobarbiturate method described by Ohkawa, et al. in Anal. Biochem., Vol. 95, p. 351, 1979.”

[3] = tested on: liver ischemia-reperfusion model using rats; assay: Glutathione concentration in liver tissue during liver ischemia-reperfusion; settings: rat, 50 mg/kg i.v.
Description: as §1, §2, §3

[4] = tested on: coronary ischemia-reperfusion model using dogs; assay: Mortality during coronary ischemia-reperfusion in dogs; settings: dog
Description: (§4) After anesthetizing 52 adult mongrel dogs of either sex weighing ca. 10 kg by intraperitoneal administration of 50 mg/kg of sodium pentobarbital, breathing tubes were immediately intubated endotracheally and artificial ventilation was continued using a Harvard ventilator. Electrocardiogram electrodes were attached, and monitoring and recording were continued throughout the experiment. Following insertion of cannulas in the right femoral vein and right femoral artery, the cannulas were used for continuous intravenous drip of physiological saline to replenish water or administration of the test preparation, and monitoring of arterial blood pressure, respectively. After performing left thoracotomy in the fourth or fifth intercostal space, the pericardium was torn to expose the heart. Ischemia was induced by ligating the left anterior descending coronary artery immediately distal to the first diagonal branch, while reperfusion was performed by subsequently removing that ligation.
(§5) The animals were divided into four groups. Group 1 (n=9) was subjected to ischemia for 2 hours, group 2 (n=17) was subjected to ischemia for 2 hours followed by reperfusion for 1 hour, group 3 (n=10) was subjected to ischemia for 2 hours followed by reperfusion for 1 hour plus intravenous injection of 10 mg/kg of γ-GCE just before reperfusion, and group 4 (n=16) was subjected to 2 hours of ischemia followed by 1 hour of reperfusion plus intravenous injection of 10 mg/kg of reduced glutathione (GSH, control drug) just before reperfusion.

[5] = tested on: liver ischemia-reperfusion model using rats; assay: Serum AST, ALT and LDH after 1 hour of reperfusion; settings: rat; 50 mg/kg i.v.
Description: as §1, §2, §3

[6] = tested on: coronary ischemia-reperfusion model using dogs; assay: Arrhythmia during coronary ischemia and reperfusion (electrocardiogram); settings: dog
Description: as §4, §5
Evaluation of arrhythmia was performed by analyzing the electrocardiogram to determine the presence of arrhythmia, or in other words, the number of ventricular premature beats, as well as the total duration of ventricular tachycardia, which was defined as more than three successive ventricular premature beats.

[7] = tested on: liver ischemia-reperfusion model using rats; assay: Adenine nucleotides in hepatic vein immediately after starting reperfusion; settings: rat; 50 mg/kg i.v.
Description: as §1, with “reperfusion. […]” for “reperfusion.”
as §3, with “Enzymol., Vol. 17, p. 65, 1956.” left out, “1986.” for “1986. In addition, the measurement of lipid peroxide in (4) was performed according to the thiobarbiturate method described by Ohkawa, et al. in Anal. Biochem., Vol. 95, p. 351, 1979.”

[8] = tested on: liver ischemia-reperfusion model using rats; assay: Liver lipid peroxide concentration (thiobarbiturate method); settings: rat; 50 mg/kg i.v.; after 1 hour reperfusion
Description: Male Wister rats weighing 250-300 g were fasted with free access to water 24 hours before the experiment. Seventy-two rats were divided into three groups of 24 animals each, i.e., the control group, the GSH administration group and the γ-GCE-administration group. Each rat was anesthetized by intraperitoneal administration of 40 mg/0.8 ml/kg of sodium pentobarbital, and the femoral vein was cannulated. In the GSH group and the γ-GCE group, 50 mg/kg of GSH or γ-GCE respectively were administered intravenously. Physiological saline was then infused for volume replacement in each group, as a continuous intravenous infusion at a rate of 0.8 ml/hr with an injection pump throughout the experiment. Thirty minutes after starting injection of physiological saline, the abdomon was opened by a midline incision and the liver hilus was exposed. […]
Evaluation of ischemia-reperfusion injury was performed by measuring liver tissue (1) mitochondrial function, (2) glutathione concentration, (3) adenine nucleotides concentration, and (4) lipid peroxide concentration, as well as liver tissue derived (5) adenine nucleotides concentration in the hepatic vein immediately after starting reperfusion, and (6) liver cell enzyme activities in the blood after 1 hour of reperfusion. More specifically, the mitochondrial function in (1) was measured according to the method described by Chance, et al. in Adv. […]

[9] = 10 mg/kg i.v. just before reperfusion
[10] = during 2 h ischemia, before the drug was given

With `CCOC(=O)[C@H](CS)NC(=O)CC[C@H](N)C(=O)O` [γ-GCE, γ-L-glutamyl-L-cysteine ethyl ester] the “effect on restoration of liver ATP following reperfusion” value ([1]; 1 hour reperfusion) was “significantly promoted restoration of ATP following reperfusion”, the “effect on the reduction of liver ATP caused by ischemia” value ([1]; 2 hours ischemia) was “did not show any effects on the reduction of ATP caused by ischemia” and the “Liver tissue ADP, after 1 hour reperfusion” value ([1]; after 1 hour reperfusion) was 0.38 μmol/g wet liver weight. For the same compound, the “Liver tissue AMP, after 1 hour reperfusion” value ([1]; after 1 hour reperfusion) was 0.12 μmol/g wet liver weight, the “Liver tissue ATP + ADP + AMP, after 1 hour reperfusion” value ([1]; after 1 hour reperfusion) was 2.21 μmol/g wet liver weight and the “Liver tissue ATP, after 1 hour reperfusion” value ([1]; after 1 hour reperfusion) was 1.70 μmol/g wet liver weight. For the same compound, the “Liver tissue ADP, after 2 hours ischemia” value ([1]; after 2 hours ischemia) was 0.17 μmol/g wet liver weight, the “Liver tissue AMP, after 2 hours ischemia” value ([1]; after 2 hours ischemia) was 0.87 μmol/g wet liver weight and the “Liver tissue ATP + ADP + AMP, after 2 hours ischemia” value ([1]; after 2 hours ischemia) was 1.10 μmol/g wet liver weight. For the same compound, the “Liver tissue ATP, after 2 hours ischemia” value ([1]; after 2 hours ischemia) was 0.06 μmol/g wet liver weight, the “Liver tissue ADP, before ischemia” value ([1]; before ischemia) was 0.57 μmol/g wet liver weight and the “Liver tissue AMP, before ischemia” value ([1]; before ischemia) was 0.13 μmol/g wet liver weight. For the same compound, the “Liver tissue ATP + ADP + AMP, before ischemia” value ([1]; before ischemia) was 3.39 μmol/g wet liver weight, the “Liver tissue ATP, before ischemia” value ([1]; before ischemia) was 2.69 μmol/g wet liver weight and the “effect on recovery of liver mitochondrial function during reperfusion” value ([2]; 1 h reperfusion) was “significantly promoted recovery of mitochondrial function during reperfusion”. The “effect on reduction of liver mitochondrial St. III O2 caused by ischemia” value ([2]; 2 h ischemia) was “significantly suppressed reduction of St. III O2 caused by ischemia”, the “decrease of liver glutathione concentration throughout the experiment” value [3] was “no significant decrease was observed throughout the experiment” and the “Liver tissue glutathione, GSH + GSSG, after 1 hour reperfusion” value ([3]; after 1 hour reperfusion) was 5.50 ± 0.26 μmol/g of liver wet weight. For the same compound, the “Liver tissue glutathione, GSH, after 1 hour reperfusion” value ([3]; after 1 hour reperfusion) was 4.97 ± 0.25 μmol/g of liver wet weight, the “Liver tissue glutathione, GSSG, after 1 hour reperfusion” value ([3]; after 1 hour reperfusion) was 0.54 ± 0.09 μmol/g of liver wet weight and the “Liver tissue glutathione, GSH + GSSG, after 2 hours ischemia” value ([3]; after 2 hours ischemia) was 5.87 ± 0.43 μmol/g of liver wet weight. For the same compound, the “Liver tissue glutathione, GSH, after 2 hours ischemia” value ([3]; after 2 hours ischemia) was 5.48 ± 0.42 μmol/g of liver wet weight, the “Liver tissue glutathione, GSSG, after 2 hours ischemia” value ([3]; after 2 hours ischemia) was 0.39 ± 0.01 μmol/g of liver wet weight and the “Liver tissue glutathione, GSH + GSSG, before ischemia” value ([3]; before ischemia) was 6.04 ± 0.35 μmol/g of liver wet weight. The “Liver tissue glutathione, GSH, before ischemia” value ([3]; before ischemia) was 5.65 ± 0.30 μmol/g of liver wet weight, the “Liver tissue glutathione, GSSG, before ischemia” value ([3]; before ischemia) was 0.39 ± 0.07 μmol/g of liver wet weight and the “liver glutathione concentration compared with control group or GSH administration group” value ([3]; throughout the experiment) was “significantly higher”. For the same compound, the “mortality rate during reperfusion” value [4, 9] was 0, the “Mortality rate (number of dogs that died / number of dogs in experiment), 1 hour of reperfusion” value ([4]; 1 hour of reperfusion after 10 mg/kg i.v. just before reperfusion) was 0/8 and the “Mortality rate (number of dogs that died / number of dogs in experiment), 2 hours of ischemia” value ([4]; 2 hours of ischemia, before the drug was given (10 mg/kg i.v. just before reperfusion)) was 2/10. For the same compound, the “Serum ALT after 1 hour of reperfusion” value [5] was 924 ± 330 IU/L, the “Serum AST after 1 hour of reperfusion” value [5] was 2071 ± 625 IU/L and the “Serum LDH after 1 hour of reperfusion” value [5] was 14678 ± 2763 IU/L. The “effect on leakage of liver cell enzymes into the blood following 1 hour of reperfusion” value [5] was “significantly reduced leakage of enzymes from liver cells”, the “Number of Ventricular Premature Beats, 1 Hour of Reperfusion” value [6, 9] was 32 ± 30 and the “Total Duration of Ventricular Tachycardia, 1 Hour of Reperfusion” value [6, 9] was 3 ± 5 s. The “effect on total duration of ventricular tachycardia during reperfusion” value [6, 9] was “remarkably suppressed its increase during reperfusion”, the “occurrence of arrhythmia (ventricular premature beats) during reperfusion” value [6, 9] was “strikingly suppressed” and the “Number of Ventricular Premature Beats, 2 Hours of Ischemia” value [6, 10] was 40 ± 51. The “Total Duration of Ventricular Tachycardia, 2 Hours of Ischemia” value [6, 10] was 1 ± 2 s, the “Adenine nucleotides concentration in hepatic vein immediately after starting reperfusion” value [7] was 1.96 ± 0.80 μmol/L serum and the “reduction of leakage of adenine nucleotides into the hepatic vein immediately after starting reperfusion” value [7] was “over 50%”. For the same compound, the “Concentration of liver lipid peroxide following reperfusion” value [8] was 6.56±0.6 nmol/mg protein.
